This passage reports relative viability results from the supplement of paper PMC10307832.

Common to all, as to assay: relative viability (nuclei count vs DMSO), 5 days (fraction); higher = more cells survive
Compound in assay [1]: CC1=C(C(=O)N2C=CSC2=N1)CCN3CCC(=C(C4=CC=CC=C4)C5=CC=C(C=C5)F)CC3 + CS(=O)(=O)N1CCN(Cc2cc3nc(-c4cccc5[nH]ncc45)nc(N4CCOCC4)c3s2)CC1 [Pictilisib] (partner 1 µM)
Summed up:
(§1)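 For relative viability, nuclei counts in treated wells were divided by those in vehicle wells. Lung cancer cell lines had been pin-tool dosed in 1536-well plates the day after seeding and cultured for 5 days, then fixed and stained in one step (final 0.05% Triton X-100, 1% formaldehyde, 1 ug/ml Hoechst) and imaged at 4×. Doses were one drug alone or a fixed anchor-drug dose plus five library-drug doses (not always all listed) in √10 steps, and values are duplicate-plate medians.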

Compound in assay [2]: CC1=C(C(=O)N2C=CSC2=N1)CCN3CCC(=C(C4=CC=CC=C4)C5=CC=C(C=C5)F)CC3 + NC(=O)Nc1cc(-c2cccc(F)c2)sc1C(=O)N[C@H]1CCCNC1 [AZD7762] (partner 0.2 µM)
In a few lines: as §1

Compound in assay [3]: CC1=C(C(=O)N2C=CSC2=N1)CCN3CCC(=C(C4=CC=CC=C4)C5=CC=C(C=C5)F)CC3 + COc1cc2c(Oc3ccc(NC(=O)C4(C(=O)Nc5ccc(F)cc5)CC4)cc3F)ccnc2cc1OCCCN1CCOCC1 [Foretinib] (partner 0.25 µM)
Summed up:
as §1

Compound in assay [4]: CC1=C(C(=O)N2C=CSC2=N1)CCN3CCC(=C(C4=CC=CC=C4)C5=CC=C(C=C5)F)CC3 + O=C(CCCCCCC(=O)Nc1ccccc1)NO [Vorinostat] (partner 1 µM)
Summed up: as §1

On to NCI-H838, for which the relative viability was found to be 0.439 in assay [1] (first compound 0.08 µM); 0.489 in assay [1] (first compound 0.253 µM); 0.466 in assay [1] (first compound 0.8 µM); 0.58 in assay [1] (first compound 2.53 µM); 0.444 in assay [1] (first compound 8 µM); 0.839 in assay [2] (first compound 0.08 µM). The relative viability worked out at 0.904 in assay [2] (first compound 0.253 µM); 0.992 in assay [2] (first compound 0.8 µM); 0.958 in assay [2] (first compound 2.53 µM); 0.806 in assay [2] (first compound 8 µM); 0.827 in assay [3] (first compound 0.08 µM); 1.03 in assay [3] (first compound 0.253 µM). Moreover, the relative viability in assay [3] (first compound 0.8 µM) was determined as 1.04; in assay [3] (first compound 2.53 µM), 1.12; in assay [3] (first compound 8 µM) it was 0.9; in assay [4] (first compound 0.08 µM) it was 0.688; in assay [4] (first compound 0.253 µM), 0.692; in assay [4] (first compound 0.8 µM), 0.738. In addition, the relative viability in assay [4] (first compound 2.53 µM) turned out to be 0.8; in assay [4] (first compound 8 µM) it was 0.573.

As to NCI-H1793, the relative viability in assay [1] (first compound 0.08 µM) stood at 0.368; in assay [1] (first compound 0.253 µM), 0.283; in assay [1] (first compound 0.8 µM) it was 0.249; in assay [1] (first compound 2.53 µM), 0.341; in assay [1] (first compound 8 µM), 0.23; in assay [2] (first compound 0.08 µM) it was 0.457. For the same cell line, the relative viability in assay [2] (first compound 0.253 µM) came to 0.408; in assay [2] (first compound 0.8 µM) it was 0.597; in assay [2] (first compound 2.53 µM), 0.381; in assay [2] (first compound 8 µM), 0.378; in assay [3] (first compound 0.08 µM), 0.601; in assay [3] (first compound 0.253 µM), 0.866. Moreover, the relative viability in assay [3] (first compound 0.8 µM) is 0.795; in assay [3] (first compound 2.53 µM), 0.624; in assay [3] (first compound 8 µM) it was 0.44; in assay [4] (first compound 0.08 µM) it was 0.599; in assay [4] (first compound 0.253 µM) it was 0.988; in assay [4] (first compound 0.8 µM), 0.577. For the same cell line, the figures for the relative viability in assay [4] (first compound 2.53 µM) and in assay [4] (first compound 8 µM) were 0.891 and 0.535, respectively.

Regarding NCI-H520, the relative viability in assay [1] (first compound 0.08 µM) was found to be 0.315; in assay [1] (first compound 0.253 µM) it was 0.334; in assay [1] (first compound 0.8 µM) it was 0.348; in assay [1] (first compound 2.53 µM), 0.33; in assay [1] (first compound 8 µM), 0.292; in assay [3] (first compound 0.08 µM) it was 0.778. Besides, the relative viability came out at 0.846 in assay [3] (first compound 0.253 µM); 0.924 in assay [3] (first compound 0.8 µM); 0.873 in assay [3] (first compound 2.53 µM); 0.641 in assay [3] (first compound 8 µM); 0.729 in assay [4] (first compound 0.08 µM); 0.751 in assay [4] (first compound 0.253 µM). Besides, the relative viability was 0.743 in assay [4] (first compound 0.8 µM), 0.962 in assay [4] (first compound 2.53 µM) and 0.489 in assay [4] (first compound 8 µM).

Consider HCC-44, for which the relative viability was 0.532 in assay [1] (first compound 0.08 µM); 0.643 in assay [1] (first compound 0.253 µM); 0.587 in assay [1] (first compound 0.8 µM); 0.573 in assay [1] (first compound 2.53 µM); 0.581 in assay [1] (first compound 8 µM); 1.04 in assay [2] (first compound 0.08 µM). The relative viability in assay [2] (first compound 0.253 µM) is 1.04; in assay [2] (first compound 0.8 µM) it was 1.08; in assay [2] (first compound 2.53 µM) it was 1.17; in assay [2] (first compound 8 µM), 1.06; in assay [4] (first compound 0.08 µM) it was 1.19; in assay [4] (first compound 0.253 µM), 1.19. Moreover, the figures for the relative viability in assay [4] (first compound 0.8 µM), in assay [4] (first compound 2.53 µM) and in assay [4] (first compound 8 µM) were 1.09, 1.24 and 0.93, respectively.

With NCI-H2023, the relative viability was 0.257 in assay [1] (first compound 0.08 µM); 0.239 in assay [1] (first compound 0.253 µM); 0.238 in assay [1] (first compound 0.8 µM); 0.263 in assay [1] (first compound 2.53 µM); 0.28 in assay [1] (first compound 8 µM); 0.831 in assay [3] (first compound 0.08 µM). Also, the relative viability in assay [3] (first compound 0.253 µM) was 0.713; in assay [3] (first compound 0.8 µM), 0.758; in assay [3] (first compound 2.53 µM), 0.984; in assay [3] (first compound 8 µM), 0.621; in assay [4] (first compound 0.08 µM) it was 0.657; in assay [4] (first compound 0.253 µM) it was 0.56. The values for the relative viability in assay [4] (first compound 0.8 µM), in assay [4] (first compound 2.53 µM) and in assay [4] (first compound 8 µM) were 0.648, 0.695 and 0.399, respectively.

As for NCI-H1975, the relative viability in assay [1] (first compound 0.08 µM) is 0.337; in assay [1] (first compound 0.253 µM) it was 0.296; in assay [1] (first compound 0.8 µM), 0.271; in assay [1] (first compound 2.53 µM) it was 0.291; in assay [1] (first compound 8 µM), 0.273; in assay [2] (first compound 0.08 µM), 0.658. For the same cell line, the relative viability in assay [2] (first compound 0.253 µM) turned out to be 0.76; in assay [2] (first compound 0.8 µM), 0.769; in assay [2] (first compound 2.53 µM), 0.738; in assay [2] (first compound 8 µM), 0.618; in assay [3] (first compound 0.08 µM), 1.04; in assay [3] (first compound 0.253 µM), 0.664. The relative viability in assay [3] (first compound 0.8 µM) came out at 0.965; in assay [3] (first compound 2.53 µM) it was 1.21; in assay [3] (first compound 8 µM), 0.591; in assay [4] (first compound 0.08 µM), 0.761; in assay [4] (first compound 0.253 µM), 0.748; in assay [4] (first compound 0.8 µM), 0.748. In addition, the relative viability in assay [4] (first compound 2.53 µM) was determined as 0.774; in assay [4] (first compound 8 µM), 0.492.

For the cell line NCI-H2342, the relative viability in assay [2] (first compound 0.08 µM) worked out at 0.382; in assay [2] (first compound 0.253 µM) it was 0.516; in assay [2] (first compound 0.8 µM) it was 0.436; in assay [2] (first compound 2.53 µM), 0.566; in assay [2] (first compound 8 µM), 0.433; in assay [3] (first compound 0.08 µM), 0.884. The relative viability is 1.02 in assay [3] (first compound 0.253 µM); 0.948 in assay [3] (first compound 0.8 µM); 1.09 in assay [3] (first compound 2.53 µM); 0.857 in assay [3] (first compound 8 µM); 0.63 in assay [4] (first compound 0.08 µM); 0.882 in assay [4] (first compound 0.253 µM). The figures for the relative viability in assay [4] (first compound 0.8 µM), in assay [4] (first compound 2.53 µM) and in assay [4] (first compound 8 µM) were 0.778, 0.795 and 0.6, respectively.
